Reference: US11691898B2, “Water treatment” (ITALMATCH CHEMICALS GB LIMITED, priority 2016, dated 2023)

Tests used:
[1] = test system: Desulfovibrio vulgaris; assay: Log10 reduction in viable count of anaerobic bacteria in a high-TDS aqueous suspension; type: cell-based; conditions: for Log10 Reduction Anaerobes*: pH 8.0, TDS 30,000 mg l^-1, versus control, 5 = complete kill, ppm active as per example; for effectiveness against anaerobes (in words): alone
Experimental: (§1) Aqueous systems inoculated with anaerobe and facultative anaerobe culture and having a total dissolved solids (TDS) concentration of 30,000 mg l^−1 were prepared and treated with treatment agents comprising: (a) tri n-butyl n-tetradecyl phosphonium chloride (TTPC) and (b) NaClO2.
(§2) A suspension of Desulfovibrio vulgaris plus Enterobacter aerogenes bacteria containing from 1×10^5 to 1×10^6 cells/mL was prepared in sterile pH 8 phosphate buffer containing sodium chloride to give the desired total dissolved solids (TDS) concentration. Aliquots of this suspension were dosed with the indicated concentrations of the compounds (a) and (b) with the concentrations being measured as ppm active. The mixtures were allowed to stand at room temperature. At the designated contact times, each mixture was sampled to determine the total number of viable cells of both Desulfovibrio vulgaris and Enterobacter aerogenes by serial 10-fold dilution into API RP 38 media vials and anaerobic acid producing media vials, respectively. The vials were incubated at 37° C. for 72 hours. Results were recorded as log10 reduction in the viable count versus the control.
(§3) The efficacy of the treatment agents was evaluated by measuring the Log10 Reduction of the anaerobic bacterium Desulfovibrio vulgaris and the facultative anaerobic bacterium Enterobacter aerogenes after contact times of 1 hour, 4 hours and 24 hours as detailed in Table 1. For TTPC the stated ppm value relates to the amount of TTPC added (active). For NaClO2 the stated ppm relates to the amount of NaClO2 added (active).

[2] = test system: Enterobacter aerogenes; assay: Log10 reduction in viable count of facultative anaerobic bacteria in a high-TDS aqueous suspension; type: cell-based; conditions: pH 8.0, TDS 30,000 mg l^-1, versus control, 6 = complete kill, ppm active as per example
Experimental: as §1, §2, §3

In the case of `CCCCCCCCCCCCCC[P+](CCCC)(CCCC)CCCC.[Cl-]` [18(comparative), tri n-butyl n-tetradecyl phosphonium chloride], the “Log10 Reduction Anaerobes*” value ([1]; contact time 24 hours) is reported as 5 and the “Log10 Reduction Facultative Anaerobes**” value ([2]; contact time 24 hours) is reported as 6.
`[Na+].[O-][Cl+][O-]` [4(comparative), NaClO2] was tested, and the “Log10 Reduction Anaerobes*” value ([1]; contact time 1 hour) was 0 and the “Log10 Reduction Facultative Anaerobes**” value ([2]; contact time 1 hour) was 0.
For `[Na+].[O-][Cl+][O-]` [12(comparative), NaClO2], the “Log10 Reduction Anaerobes*” value ([1]; contact time 4 hours) was 1 and the “Log10 Reduction Facultative Anaerobes**” value ([2]; contact time 4 hours) was 0.
In the case of `CCCCCCCCCCCCCC[P+](CCCC)(CCCC)CCCC.[Cl-]` [10(comparative), tri n-butyl n-tetradecyl phosphonium chloride], the “Log10 Reduction Anaerobes*” value ([1]; contact time 4 hours) is reported as 5 and the “Log10 Reduction Facultative Anaerobes**” value ([2]; contact time 4 hours) is reported as 4.
For `CCCCCCCCCCCCCC[P+](CCCC)(CCCC)CCCC.[Cl-]` [17(comparative), tri n-butyl n-tetradecyl phosphonium chloride], the “Log10 Reduction Anaerobes*” value ([1]; contact time 24 hours) was 5 and the “Log10 Reduction Facultative Anaerobes**” value ([2]; contact time 24 hours) was 5.
In the case of `CCCCCCCCCCCCCC[P+](CCCC)(CCCC)CCCC.[Cl-]` [1(comparative), tri n-butyl n-tetradecyl phosphonium chloride], the “Log10 Reduction Anaerobes*” value ([1]; contact time 1 hour) is reported as 2 and the “Log10 Reduction Facultative Anaerobes**” value ([2]; contact time 1 hour) is reported as 0.
`CCCCCCCCCCCCCC[P+](CCCC)(CCCC)CCCC.[Cl-]` [9(comparative), tri n-butyl n-tetradecyl phosphonium chloride] was tested, and the “Log10 Reduction Anaerobes*” value ([1]; contact time 4 hours) was 5 and the “Log10 Reduction Facultative Anaerobes**” value ([2]; contact time 4 hours) was 3.
In the case of `[Na+].[O-][Cl+][O-]` [NaClO2], the “effectiveness against anaerobes (in words)” value ([1]; longer contact times) is reported as “limited effectiveness” and the “effectiveness against anaerobes (in words)” value ([1]; short contact times) is reported as “ineffective”.
In the case of `CCCCCCCCCCCCCC[P+](CCCC)(CCCC)CCCC.[Cl-]` [2(comparative), tri n-butyl n-tetradecyl phosphonium chloride], the “Log10 Reduction Anaerobes*” value ([1]; contact time 1 hour) is reported as 5 and the “Log10 Reduction Facultative Anaerobes**” value ([2]; contact time 1 hour) is reported as 3.
In the case of `[Na+].[O-][Cl+][O-]` [19(comparative), NaClO2], the “Log10 Reduction Anaerobes*” value ([1]; contact time 24 hours) is reported as 4 and the “Log10 Reduction Facultative Anaerobes**” value ([2]; contact time 24 hours) is reported as 0.
For `[Na+].[O-][Cl+][O-]` [11(comparative), NaClO2], the “Log10 Reduction Anaerobes*” value ([1]; contact time 4 hours) was 0 and the “Log10 Reduction Facultative Anaerobes**” value ([2]; contact time 4 hours) was 0.
